Drawing on patent EP1641803B1, “THIENOPYRIMIDINE DERIVATIVES AS POTASSIUM CHANNEL INHIBITORS” (Xention Limited, priority 2003, dated 2004), this text covers IC50 and inhibition for 14 compounds.

By IC50 is commonly meant the concentration that gives 50% inhibition. Low readings indicate greater potency in that assay, high ones weaker potency in that assay. One may read the inhibition as the drop in the measured response relative to a control, in per cent. The low end stands for a response near the control, the high end for a response far below the control.

The target in one assay is T1, human Kv1.5 (Homo sapiens, UniProt P22460).
T1 construct: expressed in transfected cells
Briefly: Kv1.5 Rb+ Efflux Assay. In kind it is cell-based. The note with it: inhibition of 86Rb+ efflux through Kv1.5; cells stably transfected with human Kv1.5; 10 point concentration response curves n=2; normalised to 2.5mM 4 amino-pyridine block. On the procedure:
The pore of a potassium channel is permeable to other monovalent cations such as Rb^+ and Tl^+. Analysis of cellular efflux of potassium channel permeable ions enables potassium channel activity to be monitored directly. Cells stably transfected with cDNA for human Kv1.5 (in pEF6::VA-His-TOPO) were grown in Dulbecco's Modified Eagle media (DMEM) alpha supplemented with 10% Fetal Calf Serum (FCS), 20 µl/ml penicillin (5000U/ml) streptomycin (5000µg/ml), 10µl/ml [100x] glutamine, and blasticidin (7.5µg/ml). Cells were dispensed into 96 well cellstar TC plates and allowed to grow until a confluent monolayer was visible. On the morning of the assay run, cold media was aspirated using the TECAN plate washer, and a 50µl media spike containing 2µCi/ml (37kBq/ml) ^86Rb^+ added to each well containing cells using the Shallow-Well Matrix Platemate. Plates were placed in a incubator at 37°C for a minimum of 3 hours. Unloaded ^86Rb^+ in the "hot" media was aspirated and each well washed 4x250µl with Earls Balanced Salt Solution (EBSS) which contained 5mM KCl, 140mM NaCl, 2mM CaCl2, 1mM MgSO4, 10mM HEPES, and 5mM glucose, pH 7.4, 290-300 mOsm. These cells were then pre-incubated with 50µl of EBSS +/- test compounds for 10 minutes at room temperature. After the 10 minute incubation, 50µl of modified EBSS which contained 145mM KCl, 2mM CaCl2, 1mM MgSO4, 10mM HEPES, 5mM glucose, pH 7.4, 290-300 mOsm, was added, and the cells were incubated for a further 10 minutes at room temperature. The high KCl EBSS was used to depolarise cells to a membrane potential that would activate Kv1.5 channels. After the final incubation 80µl/100µl of the reaction from each well was transferred to equivalent wells in a Packard "Optiplate" white 96 well plate and counted in a Packard TopCount liquid scintillation counter by Cerenkov emission. Percentage inhibition ^86Rb^+ efflux through Kv1.5 was calculated by normalisation to 2.5mM 4 amino-pyridine control block of Kv1.5. Alternatively cells were loaded with ^85Rb^+ and quantified by atomic absorption spectroscopy. IC50 determinations were derived from 10 point concentration response curves n=2 using the method described above. Data was fitted as variable slope sigmoidal fit using Graphpad Prism (V3.02) software.

The target in the next assay is hKv1.5 (Homo sapiens, UniProt P22460). Briefly: Kv1.5 Autopatch Electrophysiology (whole cell patch-clamp). In kind it is cell-based. To be noted: compound at 1µM, room temperature (22-24°C), held at -80mV, step to 0mV for 1000ms, total charge measured. In short, it runs like this: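 Whole-cell automated patch-clamp at 22-24°C, compounds tested at 1µM in external bather (KCl/K-gluconate, pH 7.4; KCl/EGTA pipette). Cells held at -80mV and stepped to 0mV for 1000ms every 5s; only cells with IK > 500 pA and Rseries ≤18 MΩ used. Read-out: total charge over the whole step.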
hKv1.5, sequence (P22460 whole entry): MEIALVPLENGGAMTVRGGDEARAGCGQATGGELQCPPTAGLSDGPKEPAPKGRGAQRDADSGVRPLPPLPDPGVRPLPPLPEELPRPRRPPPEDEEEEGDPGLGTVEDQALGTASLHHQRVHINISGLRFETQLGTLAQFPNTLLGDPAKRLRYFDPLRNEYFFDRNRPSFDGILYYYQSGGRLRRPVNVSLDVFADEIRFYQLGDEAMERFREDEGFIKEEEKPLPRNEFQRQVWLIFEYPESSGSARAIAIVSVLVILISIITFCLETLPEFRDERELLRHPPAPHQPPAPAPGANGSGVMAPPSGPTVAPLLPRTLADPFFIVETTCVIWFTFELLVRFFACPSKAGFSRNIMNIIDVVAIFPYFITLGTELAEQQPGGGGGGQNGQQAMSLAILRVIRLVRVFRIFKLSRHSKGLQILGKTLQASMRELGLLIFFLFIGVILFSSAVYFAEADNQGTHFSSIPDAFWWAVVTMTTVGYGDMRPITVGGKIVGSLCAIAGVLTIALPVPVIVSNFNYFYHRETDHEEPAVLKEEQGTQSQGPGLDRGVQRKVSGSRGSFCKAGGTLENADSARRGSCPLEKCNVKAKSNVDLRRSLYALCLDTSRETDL

T1 sequence (P22460 whole entry): as above

Take `COC(=O)c1ccc(Oc2ncnc3scc(-c4ccc(C)cc4)c23)cc1` [Example 131, 4-(5-p-Tolyl-thieno[2,3-d]pyrimidin-4-yloxy)-benzoic acid methyl ester]: on human Kv1.5, the IC50 was more than 30 µM. On hKv1.5, this compound showed an inhibition at 1 µM of 29.8%.

On to `Cc1ccc(-c2csc3ncnc(NCCc4ccc5c(c4)OCCO5)c23)cc1C` [Example 132, [2-(2,3-Dihydro-benzo[1,4]dioxin-6-yl)-ethyl]-[5-(3,4-dimethyl-phenyl)-thieno[2,3-d]pyrimidin-4-yl]-amine], for which, on human Kv1.5, the midpoint of inhibition, the IC50, lay at 4.58 µM. The same compound yielded an inhibition at 1 µM against hKv1.5 of 92%.

Regarding `Cc1ccc(-c2csc3ncnc(NCc4ccco4)c23)cc1C` [Example 133, [5-(3,4-Dimethyl-phenyl)-thieno[2,3-d]pyrimidin-4-yl]-furan-2-ylmethyl-amine], the IC50 against human Kv1.5 stood at 0.67 µM. The inhibition at 1 µM against hKv1.5 stood at 77%.

The compound `Clc1ccc(-c2csc3ncnc(NCc4ccco4)c23)cc1` [Example 135, [5-(4-Chloro-phenyl)-thieno[2,3-d]pyrimidin-4-yl]-furan-2-ylmethyl-amine] displayed an IC50 against human Kv1.5 of 0.93 µM. This compound registered an inhibition at 1 µM against hKv1.5 of 84.8%.

Turning to `Clc1ccc(-c2csc3ncnc(NCCc4ccccc4)c23)cc1` [Example 136, [5-(4-Chloro-phenyl)-thieno[2,3-d]pyrimidin-4-yl]-phenethyl-amine], the IC50 against human Kv1.5 stood at 16.8 µM. Moreover, 1 µM produced 27.2% inhibition on hKv1.5.

Consider `Brc1ccc(-c2csc3ncnc(NCCc4ccc5c(c4)OCCO5)c23)cc1` [Example 137, [5-(4-Bromo-phenyl)-thieno[2,3-d]pyrimidin-4-yl]-[2-(2,3-dihydro-benzo[1,4]dioxin-6-yl)-ethyl]-amine], for which inhibition against human Kv1.5 was half-maximal at 10.7 µM (IC50). In addition, at hKv1.5, testing at 1 µM gave an inhibition of 96%.

As for `COc1ccc(-c2csc3ncnc(NCc4ccco4)c23)cc1` [Example 139, Furan-2-ylmethyl-[5-(4-methoxy-phenyl)-thieno[2,3-d]pyrimidin-4-yl]-amine], at human Kv1.5, the IC50 is 1.68 µM. This compound also returned an inhibition at 1 µM against hKv1.5 of 46.9%.

For `CCc1sc2ncnc(NCc3ccco3)c2c1-c1ccccc1` [Example 140, (6-Ethyl-5-phenyl-thieno[2,3-d]pyrimidin-4-yl)-furan-2-ylmethyl-amine], 2.71 µM corresponded to half-maximal inhibition against human Kv1.5 (IC50). The inhibition at 1 µM at hKv1.5 was found to be 74.2%.

The compound `CCc1sc2ncnc(NCc3ccco3)c2c1-c1ccoc1` [Example 141, (6-Ethyl-5-furan-3-yl-thieno[2,3-d]pyrimidin-4-yl)-furan-2-ylmethyl-amine] yielded an IC50 on human Kv1.5 of 2.15 µM. The compound also returned an inhibition at 1 µM on hKv1.5 of 81.3%.

The compound `Cc1ccccc1-c1csc2ncnc(NCc3ccccn3)c12` [Example 142, Pyridin-2-ylmethyl-(5-o-tolyl-thieno[2,3-d]pyrimidin-4-yl)-amine] displayed an IC50 against human Kv1.5 of 1.28 µM. The inhibition at 1 µM on hKv1.5 turned out to be 49.7%.

Take `Cc1ccccc1-c1csc2ncnc(NCc3ccco3)c12` [Example 143, Furan-2-ylmethyl-(5-o-tolyl-thieno[2,3-d]pyrimidin-4-yl)-amine]: on human Kv1.5, the concentration for half-maximal inhibition (IC50) was found to be 1.32 µM. This compound registered an inhibition at 1 µM against hKv1.5 of 63%.

Compound `CC(C)(C)c1ccc(-c2csc3ncnc(NCc4ccccn4)c23)cc1` [Example 144, [5-(4-tert-Butyl-phenyl)-thieno[2,3-d]pyrimidin-4-yl]-pyridin-2-ylmethyl-amine] registered an IC50 on human Kv1.5 of 1.32 µM. This compound returned an inhibition at 1 µM at hKv1.5 of 81%.

Compound `CC(C)(C)c1ccc(-c2csc3ncnc(NCc4ccco4)c23)cc1` [Example 145, [5-(4-tert-Butyl-phenyl)-thieno[2,3-d]pyrimidin-4-yl]-furan-2-ylmethyl-amine] returned an IC50 on human Kv1.5 of 3.05 µM. The same compound came in with an inhibition at 1 µM against hKv1.5 of 68%.

`c1ccc(CNc2ncnc3scc(C4CCCCC4)c23)nc1` [Example 146, (5-Cyclohexyl-thieno[2,3-d]pyrimidin-4-yl)-pyridin-2-ylmethyl-amine] came in with an IC50 against human Kv1.5 of 1.68 µM. Further, the inhibition at 1 µM on hKv1.5 stood at 81%.
